In US7629365B2 (Glaxo Group Limited, priority 2006, dated 2009):
≈ marks a conversion by molar mass, not a printed value. Read-outs that look alike come from different tables or passages of the source.

Experiment: Compound solubility determination in FaSSIF and FeSSIF
Type: physicochemical
Conditions: thermodynamic from solid
Procedure: Compound Solubility Determination
An amount of 3 mg solid compound with LC-MS purity ≧95% was required. This amount was split between 3 different glass vials (1.8 ml volume each), placing 1 mg compound into each one.
Organic solvents of HPLC grade were used. Ultra pure water (Milli-Q grade) was used. Buffers were prepared with ultra pure water and filtered using 0.45μ nylon filters. The compositions of each solvent employed in this assay are described below (part III).
2. Determination of Equilibrium Solubility (Assuming Chemical Stability in the Desired Solvent is Not a Problem).
For each of the three vial samples prepared as described above, in which the amount of compound was totally dissolved, the following procedure was subsequently carried out: • a) A small amount (approx. 0.1 mg) of additional solid compound was added to the vial to maintain an excess of the compound in the mixture in the form of undissolved solid. • b) The samples were magnetically stirred for 24 hr. If required, additional solid compound (0.1 mg) was added to maintain excess of it and then the samples were stirred again. • c) Then the samples were filtered (Millipore Milex filters nylon 0.2 um) and three aliquots were taken (one from each of the three vials) and analysed by LC-MS. • d) The pH of the final solution in each sample was measured with a pH-meter (WTW pH330i and a pH-electrode Sentix 41). 3. LC-MS Assay for Analytical Quantification
All filtered aliquots were analysed by LC-MS. The analysis was carried out with a Luna 5 μC18(2) column 4.6×150 mm, using a HP1100HPLC instrument interfaced with a Waters ZMD-2000 MS spectrometer. The concentration of the final sample as prepared above was calculated from that of a reference calibration curve obtained from serial dilutions of a 2 mM solution of the compound under investigation in DMSO (Aldrich cat. ref.: 27685-5) stock solution.
The analysis of all LC-MS data was performed with MassLynx 3.4 software. Statistical and graphic analysis of data was performed using Microsoft Excel. The concentration (μM) and solubility (μg/ml) for each compound was calculated using the peak areas from the sample and those from the calibration curve.
• A) FaSSIF is a solvent which simulates the Fasted State of the Intestinal Fluid. (FaSSIF: Fasted State Simulated Intestinal Fluid).
FaSSIF Preparation Procedure. 1. Preparation of 1 L of pH 6.8 Buffer Solution • 1.a. 3.947 g potassium phosphate and 16.401 g potassium chloride were dissolved in approx. 900 ml of water. • 1.b. The pH was adjusted to 6.8 by slow addition of 0.1 N sodium hydroxide (Scharlau SO 0441010C) under magnetic stirring. • 1.c The mixture was diluted to a volume of 1000 ml with water. 2. Preparation of 100 ml of FaSSIF • 2.a. 269 mg NaTaurochol. (Aldrich T-4009) was dissolved in approx. 80 ml of pH 6.8 buffer. • 2.b. 114 mg lecithin (Sigma P-7318) was dissolved in this NaTaurochol/buffer solution (this was carried out with a nitrogen filled glove bag). • 2.c. The resulting mixture was diluted to a volume of 100 ml with further pH 6.8 buffer • 2.d. The final solution was covered with a layer of nitrogen or alternative inert gas. The bottle was sealed with parafilm and stored at 4° C. • B) FeSSIF is a solvent which simulates the Fed State of the Intestinal Fluid. (FeSSIF: Fed State Simulated Intestinal Fluid).
FeSSIF Preparation Procedure. 1. Prepare 1 L of pH 5 Buffer Solution • 1.a. 15.2 g potassium chloride and 8.25 ml glacial acetic acid were dissolved in approx. 900 ml of water. • 1.b. The pH was adjusted to 5 by slow addition of NaOH 0.1N (Scharlau SO 0441010C) under magnetic stirring. • 1.c The mixture was diluted to a volume of 1000 ml with water. 2. Preparation of 100 mL of FeSSIF • 2.a. 806.5 mg NaTaurochol (Aldrich T-4009) was dissolved in 80 ml of pH 5 buffer. • 2.b. 288 mg lecithin (Sigma P-7318) was dissolved in this NaTaurochol/buffer solution (carried out with a nitrogen filled glove bag). • 2.c. […]

[1] = FaSSIF (Fasted State Simulated Intestinal Fluid), pH 6.8 buffer, read-out: Solubility in FaSSIF
[2] = FeSSIF (Fed State Simulated Intestinal Fluid), pH 5.0 buffer, read-out: Solubility in FeSSIF

Compound | solubility at 24 h [1] [µg/mL] | solubility at 24 h [2] [µg/mL]
Cc1[nH]c(CO)c(-c2ccc(Oc3cccc(C(F)(F)F)c3)cc2)c(=O)c1Cl [Example 2] | 1 to 5 (≈ 2.44 to 12.2 µM) | 1 to 5 (≈ 2.44 to 12.2 µM)
Cc1[nH]c(CO)c(Cl)c(=O)c1-c1ccc(Oc2cccc(C(F)(F)F)c2)cc1 [Example 4, 3-chloro-2-(hydroxymethyl)-6-methyl-5-(4-{[3-(trifluoromethyl)phenyl]oxy}phenyl)-4(1H)-pyridinone] | 1 to 5 (≈ 2.44 to 12.2 µM) | 10 to 50 (≈ 24.4 to 122 µM)
Cc1[nH]c(CCCO)c(-c2ccc(Oc3ccc(OC(F)(F)F)cc3)cc2)c(=O)c1Cl [Example 8, 3-chloro-6-(3-hydroxypropyl)-2-methyl-5-[4-({4-[(trifluoromethyl)oxy]phenyl}oxy)phenyl]-4(1H)-pyridinone] | 10 to 50 (≈ 22 to 110 µM) | 10 to 50 (≈ 22 to 110 µM)
CON=Cc1[nH]c(C)c(Cl)c(=O)c1-c1ccc(Oc2ccc(OC(F)(F)F)cc2)cc1 (single isomer, unassigned) [Example 6, 5-Chloro-6-methyl-4-oxo-3-[4-({4-[(trifluoromethyl)oxy]phenyl}oxy)phenyl]-1,4-dihydro-2-pyridinecarbaldehyde-O-methyloxime] | 5 to 10 (≈ 11 to 22.1 µM) | 10 to 50 (≈ 22.1 to 110 µM)
Cc1[nH]c(C=NO)c(Cl)c(=O)c1-c1ccc(Oc2ccc(OC(F)(F)F)cc2)cc1 (single isomer, unassigned) [Example 7, 3-chloro-6-methyl-4-oxo-5-[4-({4-[(trifluoromethyl)oxy]phenyl}oxy)phenyl]-1,4-dihydro-2-pyridinecarbaldehyde oxime] | 1 to 5 (≈ 2.28 to 11.4 µM) | 5 to 10 (≈ 11.4 to 22.8 µM)
Cc1[nH]c(CO)c(-c2ccc(Oc3ccc(OC(F)(F)F)cc3)cc2)c(=O)c1Cl [Example 1, 3-Chloro-6-(hydroxymethyl)-2-methyl-5-[4-({4-[(trifluoromethyl)oxy]phenyl}oxy)phenyl]-4(1H)-pyridinone] | 1 to 5 (≈ 2.35 to 11.7 µM) | 5 to 10 (≈ 11.7 to 23.5 µM)
Cc1[nH]c(/C=N/O)c(-c2ccc(Oc3ccc(OC(F)(F)F)cc3)cc2)c(=O)c1Cl [Example 5, 5-Chloro-6-methyl-4-oxo-3-[4-({4-[(trifluoromethyl)oxy]phenyl}oxy)phenyl]-1,4-dihydro-2-pyridinecarbaldehyde oxime] | 5 to 10 (≈ 11.4 to 22.8 µM) | 10 to 50 (≈ 22.8 to 114 µM)
Cc1[nH]c(CO)c(Cl)c(=O)c1-c1ccc(Oc2ccc(OC(F)(F)F)cc2)cc1 [Example 3, 3-chloro-2-(hydroxymethyl)-6-methyl-5-[4-({4-[(trifluoromethyl)oxy]phenyl}oxy)phenyl]-4(1H)-pyridinone] | 5 to 10 (≈ 11.7 to 23.5 µM) | 10 to 50 (≈ 23.5 to 117 µM)
